Assay results from article PMC7356613, “Unsymmetrically-Substituted 5,12-dihydrodibenzo[b,f][1,4]diazocine-6,11-dione Scaffold—A Useful Tool for Bioactive Molecules Design” (Molecules, 2020).
Where two headings read alike, the source gives them in different places.

Assays:
[1] = test system: HeLa cells; assay: Annexin V-FITC / propidium iodide flow cytometry, HeLa; format: cell-based; details: 200 µM, 24 h, non-treated control 5.4%
Protocol: (§1) HeLa, U87, BICR18, EUFA30 cell lines were cultured in DMEM medium (Life Technology) supplemented with 10% fetal bovine serum (Life Technology) and 0.1% antibiotics, penicillin and streptomycin (Life Technology). Cells were grown in a humidified atmosphere of CO2/air (5/95%) at 37 °C.
(§2) The Annexin V-FITC apoptosis detection kit (BD Biosciences) was used to detect apoptosis by flow cytometry. Cells were seeded at Petri dishes, cultured for 18 h with tested agents applied for 24 h. DMSO was added as the non-treated control and camptothecin (CPT) as the positive control. Subsequently, cells were washed with PBS, resuspended in binding buffer at a concentration of 2 × 10^6 cells/mL, and anti-Annexin V FITC-conjugated antibody and propidium iodide were added to 100 µL aliquots. The mixtures were incubated for 15 min at room temperature, supplemented with binding buffer to 500 µL and processed by BD FACSCalibur (BD Biosciences). Data were analyzed in Flowing Software version 2.5.1 (Flowing Software, http://www.uskonaskel.fi/flowingsoftware).

[2] = test system: EUFA30, HeLa, BICR18, U87 cells; assay: Alamar Blue cytotoxicity assay, statements over all tested cell lines; format: cell-based; details: Homo sapiens, concentrations 1-300 µM, group range = lowest to highest value, read-out: IC50 across the tested cell lines
Protocol: as §1
(§3) Exponentially growing cells were seeded onto a 96-well plate at the density of 2 × 10^3 cells/well, cultured for 18 h, and treated with newly synthesized derivatives at concentrations 1–300 µM, or with DMSO as a control, for 24 or 48 h. Alamar Blue (Invitrogen) was added accordingly to manufacturer protocol. After 4 h, light emission at 590 nm was measured with excitation at 560 nm using a scanning multiwell spectrophotometer (DTX 880, Beckman Coulter). The experiments were carried out at least three times with three replicates for each inhibitor concentration. After background subtraction, inhibition rate, IC50 was calculated as the concentration of the component inhibiting cell growth by 50%. All the calculations were performed using Origin 9.0 software.

[3] = test system: HeLa cells (cervix adenocarcinoma); assay: Alamar Blue cytotoxicity assay, HeLa; format: cell-based; details: Homo sapiens; for IC50: 24 h of treatment, read-out: IC50 based on survival of cells
Protocol: as §1, §3

[4] = test system: EUFA30 cells; assay: Annexin V-FITC / propidium iodide flow cytometry, EUFA30; format: cell-based, human; details: EUFA30, 200 µM, 24 h; for dead cell fraction: early apoptosis: non-treated control 0.3%; for dead cell fraction: late apoptosis: non-treated control 0.4%; for dead cell fraction: necrosis: non-treated control 5.7%
Protocol: as §1, §2

[5] = test system: U87 cells (human primary glioblastoma); assay: Alamar Blue cytotoxicity assay, U87; format: cell-based; details: U-87 MG; for inhibition at 300 µM: bracketed values, read-out: proliferation inhibition expressed as a percentage at highest concentration used
Protocol: as §1, §3

[6] = test system: EUFA30 cells (non-cancerous human fibroblasts); assay: Alamar Blue cytotoxicity assay, EUFA30; format: cell-based; details: Fibroblast; for inhibition at 300 µM: bracketed values, read-out: proliferation inhibition expressed as a percentage at highest concentration used
Protocol: as §1, §3

[7] = test system: BICR18 cells (laryngeal squamous cell carcinoma); assay: Alamar Blue cytotoxicity assay, BICR18; format: cell-based; details: for IC50: read-out: IC50 based on survival of cells
Protocol: as §1, §3

SMILES	number of necrotic cells [1]	IC50 [2]	IC50 [3]	inhibition at 300 µM ([3]; 48 h, 300 µM, bracketed values, read-out: proliferation inhibition expressed as a percentage at highest concentration used)	dead cell fraction: early apoptosis [4]	dead cell fraction: late apoptosis [4]	dead cell fraction: necrosis [4]	IC50 ([5]; U87, 24 h of treatment, read-out: IC50 based on survival of cells)	inhibition at 300 µM ([5]; U87, 48 h)	IC50 ([6]; EUFA30, 24 h of treatment, read-out: IC50 based on survival of cells)	inhibition at 300 µM ([6]; EUFA30, 48 h)	IC50 ([7]; BICR18, 24 h of treatment)	IC50 ([7]; BICR18, 48 h of treatment, N.A. = not active)	inhibition at 300 µM ([5]; U87, 24 h)	inhibition at 300 µM ([6]; EUFA30, 24 h)	inhibition at 300 µM ([7]; BICR18, 24 h, 300 µM, bracketed values, read-out: proliferation inhibition expressed as a percentage at highest concentration used)
CC(=O)N1C(=O)c2ccccc2C(=O)N(Cc2ccccc2)c2ccccc21 [Compound 3o, 5-acetyl-12-benzyl-5,12-dihydrodibenzo[b,f][1,4]diazocine-6,11-dione]	27.7%	93.7 to 323 µM	169 ± 13.4 µM	33.4%	9.5%	6.4%	0.8%	240 ± 6.1 µM	33.8%	155 ± 14.6 µM	41.8%	121 ± 11.4 µM	294 ± 3.2 µM			
CCOC(=O)CN1C(=O)c2cc(Cl)c(Cl)cc2C(=O)N(C)c2ccccc21 [Compound 3n, ethyl 2-(8,9-dichloro-12-methyl-6,11-dioxo-11,12-dihydrodibenzo[b,f][1,4]diazocin-5(6H)-yl)acetate]	11.3%	93.7 to 323 µM	311 ± 14.1 µM		7.8%	1.4%	1.9%							30.7%	41.5%	20.9%
